These results are taken from US5399566A, “Pyridine derivatives having angiotensin II antagonism” (Meiji Seika Kabushiki Kaisha, priority 1990, dated 1995).

For data set [1], the target named is T1, contraction response to angiotensin II at the isolated thoracic aorta of rabbit (Oryctolagus cuniculus, UniProt P34976).
T1 construct: A strip of thoracic aorta of a male rabbit (2.5-3.0 kg) was prepared by the usual method; from tissue; host or cells: rabbit thoracic aorta strip
T1 sequence (P34976 1-359): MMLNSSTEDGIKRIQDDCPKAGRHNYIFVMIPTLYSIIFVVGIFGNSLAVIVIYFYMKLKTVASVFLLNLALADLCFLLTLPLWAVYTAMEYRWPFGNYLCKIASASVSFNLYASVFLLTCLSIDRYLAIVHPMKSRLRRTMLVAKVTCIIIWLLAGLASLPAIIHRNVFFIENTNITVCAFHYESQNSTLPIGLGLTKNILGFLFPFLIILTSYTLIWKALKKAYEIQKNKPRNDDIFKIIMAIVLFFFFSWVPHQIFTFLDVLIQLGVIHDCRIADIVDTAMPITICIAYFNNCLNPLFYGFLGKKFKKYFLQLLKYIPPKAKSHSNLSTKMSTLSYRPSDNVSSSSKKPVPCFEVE
The data set is described as follows: In vitro angiotensin II antagonism, isolated rabbit thoracic aorta (Schild pA2). As to conditions: Schild plot. In kind it is cell-based. The text has this: (§1) The angiotensin II antagonistic activities in vitro were compared on the basis of the intensities (pA2 value) of antagonizing the contraction response to angiotensin II at the isolated thoracic aorta of rabbit. The in vivo activities were examined by comparing the inhibitory effects on the hypertensive action by an exogenous angiotensin II in a non-anesthetized rat and the hypotensive effects of a renal hypertensive rat or a spontaneously hypertensive rat.
A strip of thoracic aorta of a male rabbit (2.5-3.0 kg) was prepared by the usual method and suspended in an organ bath containing well oxygenated Krebs-Henseleit solution at 37° C. The pA2 value was calculated according to the method described by H. O. Schild (British Journal of Pharmacology and Chemotherapeutics, 2, 189-206, 1947). A strip treated with 3-5 doses of a subject compound in an amount of 10^-6 M-10^-10 M and a strip treated with no drug were employed for obtaining a dose-response curve by angiotensin II. Log (dose ratio--1) was calculated from the shift of the dose-response curve of the subject compound, and pA2 value was obtained from the Schild plottings.

For data set [2], the system named is hypertensive action by angiotensin II. The data set is described as follows: Inhibition on the hypertensive action by an exogenous angiotensin II in conscious rats. In kind it is in vivo, Spraque-Dawley (SD) male rats. As to conditions: oral; for inhibitory effect on the hypertensive action by angiotensin II: angiotensin II 0.1 μg/kg i.v.; for ED50: Rattus norvegicus, within 6 hours after administration, read-out: ED50 (dose required for inhibiting the hypertensive action by angiotensin II to the extent of 50%).
Source text: as §1
Anesthetized Spraque-Dawley (SD) male rats were cannulated into a femoral artery and a femoral vein and used for the experiment at the time when it has elapsed at least 24 hours after the operation. The hypertensive action caused by angiotensin II (0.1 μg/kg) which has been administered through the vein catheter was measured under conscious and unrestrained condition before and after administration of the compound. The artery catheter was connected to a pressure transducer to measure a mean blood pressure, and the subject compounds were orally administered in the form of a homogeneous suspension in a 0.5% aqueous carboxymethyl cellulose solution.
The intensities of the inhibitory effects within 6 hours after administration of the compound were examined on the basis of the dose of the compound required for inhibiting the hypertensive action by angiotensin II to the extent of 50% (ED50 values).

The nature of data set [3]: Toxicity test, oral, mice. To be noted: mouse, in vivo, ddY male mice 5 weeks old. On the procedure: Several compounds of the present invention represented by the general formula (I) were administered orally by compulsion to ddY male mice of 5 weeks old (average weight, ca. 20 g).
For the next data set, the system named is Fisher 344 male rats. The data set can be described thus: Antianxiety effect, elevated plus maze. As to conditions: diazepam 3 mg/kg. The class given is in vivo. On the procedure:
The subject compounds were examined on their antianxiety effect with the light and dark box according to the method described by B. Costall et al. (Pharmacology Biochemistry and Behavior, 32, 777-785, 1989) and with the elevated plus maze by S. Pell et al. (Journal of Neuroscience Methods, 14, 149-167, 1985).
To Fisher 344 male rats (5-6 weeks old), the subject compounds were orally administered at a dose of 1-100 μg/kg in the form of a homogeneous suspension or solution in a 0.5% aqueous carboxymethyl cellulose solution. Among the four arms of the elevated plus maze (a device in which four arms are intersected crosswise and connected together at a height of 50 cm from the floor), the two arms with side walls are referred to as closed arms and the two arms without side walls are referred to as open arms. […] As the indices of the behavior, the latency until stepped out from the arm first placed to the other arm and the durations in the respective arms were measured, and the other behaviors were recorded. Diazepam was used as a control agent, and the drug administered group and the solvent administered group (group to which a 0.5% aqueous carboxymethyl cellulose solution was administered)were compared for the behaviors.

Where only a bound is given, the exact number is not on record here.

In data set [1], `Cc1cc(OCc2ccc(-c3ccccc3-c3nnn[nH]3)cc2)c(OCc2ccccc2)c(C)n1` [Example 21, 3-benzyloxy-2,6-dimethyl-4-[2'-(tetrazol-5-yl)biphenyl-4yl]-methoxypyridine] had a Kb of 6.76 nM. In data set [2] (3 mg/kg), the “inhibitory effect on the hypertensive action by angiotensin II” value (from here on “inhibitory effect”) is recorded as “significant inhibitory effects”.
On to `CCc1nc(C)cc(OCc2ccc(-c3ccccc3-c3nnn[nH]3)cc2)c1OC` [Example 16, 2-ethyl-3-methoxy-6-methyl-4-[2'-(tetrazol-5-yl)biphenyl-4-yl]methoxypyridine], for which the Kb in data set [1] is 0.912 nM. For the same compound, the “inhibitory effect” value in data set [2] (dose of 1 mg/kg or less) is “significant inhibitory effects”.
Consider `CCOc1c(OCc2ccc(-c3ccccc3-c3nnn[nH]3)cc2)cc(C)nc1C` [Example 12, 3-ethoxy-2,6-dimethyl-4-[2'-(tetrazol-5-yl)biphenyl-4-yl]methoxypyridine], for which the Kb in data set [1] was 1.74 nM. The ED50 in data set [2] is 0.56 mg/kg. Also, the “inhibitory effect” value in data set [2] (dose of 1 mg/kg or less) was “significant inhibitory effects”. Moreover, the LD50 in data set [3] is greater than 1000 mg/kg.
Turning to `CCc1cc(OCc2ccc(-c3ccccc3-c3nnn[nH]3)cc2)cc(CC)n1` [Example 1, 2,6-Diethyl-4-[2'-(tetrazol-5-yl)biphenyl-4-yl]-methoxypyridine], the Kb in data set [1] is 5.25 nM. For the same compound, the ED50 in data set [2] stood at 0.6 mg/kg. In addition, in data set [2] (dose of 1 mg/kg or less), the “inhibitory effect” value is recorded as “significant inhibitory effects”. Further, in data set [3], the median lethal dose (LD50) is greater than 1000 mg/kg.
In turn, `CCc1nc(C)cc(OCc2ccc(-c3ccccc3-c3nnn[nH]3)cc2)c1C(=O)OC` [Example 46, 2-ethyl-3-methoxycarbonyl-6-methyl-4-[2'-(tetrazol-5-yl)-biphenyl-4-yl]methoxypyridine] gave a Kb in data set [1] of 0.617 nM. Moreover, in data set [2] (dose of 1 mg/kg or less), the “inhibitory effect” value is reported as “significant inhibitory effects”.
For `CCc1cc(OCc2ccc(-c3ccccc3-c3nnn[nH]3)cc2)cc(C)n1` [Example 3, 2-ethyl-6-methyl-4-[2'-(tetrazol-5-yl)biphenyl-4-yl]-methoxypyridine], the Kb in data set [1] is 5.75 nM. The median effective dose (ED50) in data set [2] is 1.35 mg/kg. In data set [3], this compound displayed an LD50 greater than 1000 mg/kg.
In data set [1], `CCc1cc(OCc2ccc(-c3ccccc3C(=O)O)cc2)cc(CC)n1` [Example 81, 2,6-diethyl-4-(2'-carboxybiphenyl-4-yl)m ethoxypyridine] showed a Kb of 9.77 nM. The “inhibitory effect” value in data set [2] (3 mg/kg) was “significant inhibitory effects”.
On to `Cc1cc(OCc2ccc(-c3ccccc3-c3nn[nH]n3)cc2)c(CO)c(C)n1` [Example 55, 3-Hydroxymethyl-2,6-dimethyl-4-[2'-(tetrazol-5-yl)biphenyl-4-yl]methoxypyridine], for which, in data set [1], the antagonist dissociation constant (Kb) is 12.3 nM.
For `CCOc1c(OCc2ccc(-c3ccccc3C(=O)O)cc2)cc(C)nc1C` [Example 83, 3-ethoxy-2,6-dimethyl-4-(2'-carboxybiphenyl-4yl)methoxypyridine], the antagonist dissociation constant (Kb) in data set [1] was 28.2 nM. Also, the ED50 in data set [2] was 1.21 mg/kg. Besides, the “inhibitory effect” value in data set [2] (dose of 1 mg/kg or less) is listed as “significant inhibitory effects”. Moreover, the LD50 in data set [3] is greater than 1000 mg/kg.
Take `Cc1cc(OCc2ccc(-c3ccccc3-c3nnn[nH]3)cc2)c(C=O)c(C)n1` [Example 68, 3-Formyl-2,6-dimethyl-4-[2'-(tetrazol-5-yl)biphenyl-4-yl]methoxypyridine]: in data set [1], the Kb is 5.89 nM.
As for `CN1C(=O)CN=C(c2ccccc2)c2cc(Cl)ccc21` [diazepam], in the data set with Fisher 344 male rats, the “duration out of the closed arm” value is on record as “increased”, the “latency until stepped out from the arm first placed” value was “significantly decreased” and the transitions result is given as “increased”.
Regarding `CC(=O)OCc1c(OCc2ccc(-c3ccccc3-c3nnn[nH]3)cc2)cc(C)nc1C` [Example 67, 3-Acetoxymethyl-2,6-dimethyl-4-[2'-(tetrazol-5-yl)-biphenyl-4-yl]methoxypyridine], the Kb in data set [1] is 0.129 nM.
On to `COCc1c(OCc2ccc(-c3ccccc3-c3nnn[nH]3)cc2)cc(C)nc1C` [Example 57, 3-Methoxymethyl-2,6-dimethyl-4-[2'-(tetrazol-5-yl)-biphenyl-4-yl]methoxypyridine], for which the Kb in data set [1] was 6.17 nM. In addition, in data set [2] (3 mg/kg), the “inhibitory effect” value was “significant inhibitory effects”.
Taken in the same sequence, the figures for `Cc1cc(OCc2ccc(-c3ccccc3-c3nnn[nH]3)cc2)c(C(=O)N(C)C)c(C)n1` [Example 53, 2,6-Dimethyl-3-(N,N-dimethylcarbamoyl)-4-[2'-(tetrazol-5-yl)bipbenyl-4-yl]methoxypyridine] were 3.02 nM and “significant inhibitory effects”.
`CCOC(=O)c1c(OCc2ccc(-c3ccccc3-c3nnn[nH]3)cc2)cc(CC)nc1C` [Example 44, 3-ethoxycarbonyl-6-ethyl-2-methyl-4-[2'-(tetrazol-5-yl)-biphenyl-4-yl]methoxypyridine]: the Kb in data set [1] was 1 nM. Also, the “inhibitory effect” value in data set [2] (3 mg/kg) is “significant inhibitory effects”.
